These are literature values, as cited in patent publication US7902187B2, “6-substituted 2-(benzimidazolyl)purine and purinone derivatives for immunosuppression” (Wyeth LLC, priority 2006, dated 2011).

Like-named read-outs stand apart in the source and are kept apart here.

The conditions of data set [1]: murine model of heart transplantation; cited from earlier work.
The conditions of data set [2]: primate model of kidney transplantation; cited from earlier work.

As to `C[C@@H]1CCN(C(=O)CC#N)C[C@@H]1N(C)c1ncnc2[nH]ccc12` [CP-690,550], the animal survival result in data set [1] and in data set [2] was “prolong animal survival” in each case.
